Assay results from patent publication US20100286174A1, “INHIBITING GSNOR” (Duke University, priority 2009, published 2010).

Tested on: diabetic nephropathy
Assay: Treatment of patient with diabetic nephropathy (Working Example IV)
Assay type: in vivo, human
Settings: person, creatinine of 3 at start; final concentration 6 micromolar; follow up 2 months later
From the text: A person with diabetic nephropathy and creatinine of 3 is started on compound 6 at a final concentration of 6 micromolar and at follow up 2 months later, the creatinine is 2.

SMILES: CC(=O)CCc1ccc(-c2ccccc2)n1-c1ccc(C(C)=O)cc1 [compound 6]
- creatinine: 2
